Key:
Type in all cases: in vivo
ants (Formica japonica) = assay: Test Example 14: oil-based aerosol spray, ants; settings: about 450 mg of 1.0% oil-based aerosol sprayed, after 2 days
Method: According to Preparation examples 10-14, 1.0% oil-based aerosol of the Pyrone Compound was obtained. In a 200 cc plastic cup having inside wall painted talc for preventing tested ants to escape, about 30 g of soil were set and 10 ants (Formica japonica) were release thereon. The plastic cup was set on the bottom center of a glass cylinder having 20 cm in diameter and 60 cm in height. About 450 mg of the above oil-based aerosol were sprayed to the ants from the upper part of the cylinder. After 10 seconds, the ants were taken out and put into a clean plastic cup having a piece of watermelon peel as food therein. After 2 days, the mortality was observed and the result was 70%.

[1] = system: adult American cockroaches (Periplaneta americana); assay: Test Example 5: heating fumigant (ceramic plate) in 5.8 m^3 chamber, American cockroaches; settings: heating fumigant (Preparation example 24, 500 mg) at about 200° C. in 5.8 m^3 chamber
Method: (§1) On the bottom of a cubic chamber having 1.8 m of side (5.8 m^3), the heating fumigant (ceramic plate) obtained in Preparation example 24 with an electric heater was set in the center. Two plastic cups were put at two corners in the chamber, wherein each cup has ten (5 males and 5 females) adult German cockroaches (Blattella germanica) therein. Two hours after turning on an electric current, the ceramic plate was heated to about 200° C. (200±5° C.) and the active ingredient was vaporized. The heating temperature was estimated by measuring a surface temperature of the ceramic plate with radiation pyrometer (TR-0506C produced by Minolta Company) in advance. Then, the knocked-down cockroaches were counted and the knock-down percentage was calculated. Further, the cockroaches were transferred to a clean plastic cup and given foods and water. The mortality was observed after 7 days.
(§2) Furthermore, the same tests were performed except that six (3 males and 3 females) adult smokybrown cockroaches (Periplaneta fuliginosa) and six (3 males and 3 females) adult American cockroaches (Periplaneta americana) were used in place of ten German cockroaches.

[2] = system: adult German cockroaches (Blattella germanica); assay: Test Example 21: total-release aerosol in 28 m^3 chamber, German cockroaches; settings: total-release aerosol (Preparation example 16) in 28 m^3 chamber, after 2 hours
Method: In a test chamber of 3 m×4 m and 2.3 m in height (28 m^3), two plastic cups were put at two corners, wherein each cup has ten (5 males and 5 females) adult German cockroaches (Blattella germanica) therein. The formulation obtained in Preparation example 16 was set in the center of the bottom and the contents of the aerosol were totally released. After 2 hours, the knock-down percentage was 100%.

[3] = system: cat flea (Ctenocephalides felis) eggs; assay: Test Example 8: treated filter paper, hatching of cat flea eggs
Method: A designated amount of the Pyrone Compound was dissolved in acetone to give a 0.2 ml solution, which was uniformly treated on a filter paper having 3.8 cm in diameter, and air-dried for one hour. The filter paper was set on an aluminum plate of 4 cm in diameter. Twenty cat flea (Ctenocephalides felis) eggs were put on the filter paper and the plate was kept at 25±3° C. and 70-90% of humidity in a plastic Petri dish. After 7 days, the hatching was observed. The tests were repeated three times and the results are given in […]

[4] = system: adult pill bugs (Armadillidium vulgare); assay: Test Example 12: oil-based aerosol spray, pill bugs; settings: about 450 mg of 1.0% oil-based aerosol sprayed, after 3 days
Method: According to Preparation examples 10-14, 1.0% oil-based aerosol of the Pyrone Compound was obtained. A container (8.75 cm in diameter, 7.5 cm in height, bottom covered 16-mesh iron net and inside wall painted butter for preventing tested pill bugs to escape) having 5 adult pill bugs (Armadillidium vulgare) therein was set on the bottom center of a glass cylinder having 20 cm in diameter and 60 cm in height. About 450 mg of the above oil-based aerosol were sprayed to the pill bugs from the upper part of the cylinder. After 30 seconds, the pill bugs were taken out and put into a clean plastic cup having soil and dead leaves therein. The pill bugs were given food and water and observed after 3 days. The tests were repeated twice. The mortality was 100%. Reference compound was also tested and the mortality was 40%.

[5] = system: adult smokybrown cockroaches (Periplaneta fuliginosa); assay: Test Example 4: smoking formulation in 28 m^3 chamber, smokybrown cockroaches; settings: 10 g smoking (Preparation example 25) in 28 m^3 chamber
Description: In a test chamber of 3 m×4 m and 2.3 m in height (28 m^3), two plastic cups were put at two corners, wherein each cup has ten (5 males and 5 females) adult German cockroaches (Blattella germanica) therein. Ten grams (10 g) of the smoking obtained in Preparation example 25 and 50g of magnesium oxide were charged into each of the cells in an aluminum container having an aluminum wall. The cell charged magnesium oxide has small holes. The aluminum container was dipped into water in the plastic container set in the test chamber. The smoking was heated to release the vaporized active ingredient by the reaction heats of magnesium oxide with water. After 2 hours, knock-down percentage was observed. Further, the cockroaches were transferred to a clean plastic cup and given foods and water. The mortality was observed after 7 days.
as §2

[6] = system: adult cat fleas (Ctenocephalides felis); assay: Test Example 7: treated filter paper contact, adult cat fleas; settings: three repetitions
Method: A designated amount of the Pyrone Compound was dissolved in acetone to give a 0.2 ml solution, which was uniformly treated on a filter paper having 3.8 cm in diameter, and air-dried for one hour. The filter paper was filled in a lid of a 200 ml glass bottle. Twenty adult cat fleas (Ctenocephalides felis) were released in the glass bottle, which was followed by covering with the lid. The glass bottle was upset for making the fleas contact with the filter paper, and kept at room temperature (25±3° C.) for one day. After that, the mortality was observed.

[7] = system: adult German cockroaches (Blattella germanica); assay: Test Example 5: heating fumigant (ceramic plate) in 5.8 m^3 chamber, German cockroaches; settings: heating fumigant (Preparation example 24, 500 mg) at about 200° C. in 5.8 m^3 chamber
Method: as §1

[8] = system: 4-instar larvae of tobacco cutworm (Spodoptera litura); assay: Test Example 17: treated cabbage leaf disc, feeding damage by tobacco cutworm; settings: 50 μg on cabbage leaf disc of 1 cm diameter, after 24 hours, 5 repetitions
Method: A methanol solution (50 μg/20 μl) of the Pyrone Compound was prepared. The solution (20 μl) was painted on a cut leaf disc of cabbage (1 cm in diameter). After vaporizing methanol, the leaf disc was put on a filter paper, which was wet with 1 ml of water, in Petri dish making the painted surface upside. Two 4-instar larvae of tobacco cutworm (Spodoptera litura) were put in the Petri dish. After 24 hours, the damage of the leaf disc was observed and compared with the test result of the non-treated disc. The tests were repeated 5 times.

SMILES: Cc1cc(O)c(C(=O)CC(C)C)c(=O)o1 [The Pyrone Compound]
- mortality (ants (Formica japonica)): 70%
- Mortality (%) ([1]; after 7 days): 67%
- Knock-down percentage (%) ([1]; two hours): 100%
- knock-down percentage [2]: 100%
- Hatching ratio (%) ([3]; dosage 5 mg/m^2, after 7 days): 1.7%
- Hatching ratio (%) ([3]; dosage 25 mg/m^2, after 7 days): 0%
- Hatching ratio (%) ([3]; dosage 125 mg/m^2, after 7 days): 0%
- mortality [4]: 100%
- Knock-down percentage (%) ([5]; after 2 hours): 100%
- Mortality (%) ([5]; after 7 days): 100%
- Mortality (%) ([6]; dosage 200 mg/m^2, one day): 98%
- Mortality (%) ([6]; dosage 800 mg/m^2, one day): 100%
- Mortality (%) ([7]; after 7 days): 100%
- Knock-down percentage (%) ([7]; two hours): 100%
- damage of the leaf disc compared with the non-treated disc [8]: clearly smaller
